Laboratory results published in patent US20240277890A1, “ANTIMICROBIAL ARTICLES COMPRISING POLYURETHANE” (Amicoat AS, priority 2021, published 2024).
≈ marks a conversion by molar mass, not a printed value.

Tests used:
[1] = tested on: Staphylococcus aureus, strain ATCC 25923; conditions: ATCC 25923
[2] = tested on: Moraxella catarrhalis - β-lactamase positive clinical isolate
[3] = tested on: Moraxella catarrhalis - reduced fluoroquinolone susceptibility clinical isolate
[4] = tested on: Corynebacterium jeikeium - multi-drug resistant clinical isolate
[5] = tested on: Staphylococcus aureus ATCC 43300 - methicillin-resistant control strain
[6] = tested on: Staphylococcus saprophyticus - antibiotic susceptible clinical isolate
[7] = tested on: Staphylococcus haemolyticus - antibiotic susceptible clinical isolate
[8] = tested on: Methicillin resistant Staphylococcus aureus (MRSA) strain ATCC 33591; conditions: ATCC 33591
[9] = tested on: Candida tropicalis ATCC750 - reference strain
[10] = tested on: Staphylococcus aureus ATCC 25923 - antibiotic-susceptible control strain
[11] = tested on: Pseudomonas aeruginosa - multi-drug resistant clinical isolate
[12] = tested on: Streptococcus agalactiae - antibiotic-susceptible clinical isolate
[13] = tested on: Staphylococcus epidermidis antibiotic susceptible clinical isolate
[14] = tested on: Corynebacterium jeikeium - antibiotic-susceptible clinical isolate
[15] = tested on: Staphylococcus epidermidis methicillin-resistant clinical isolate
[16] = tested on: Staphylococcus aureus - methicillin-resistant clinical isolate
[17] = tested on: Staphylococcus aureus FDA486; experiment: Murine skin infection model, one day topical treatment; type: in vivo, mice; conditions: cream or gel containing 2% (w/w) of compound; three topical treatments at three hourly intervals; compared to placebo
Method: (§1) The skin of mice was infected with Staphylococcus aureus or Streptococcus pyogenes and subsequently given a total of three treatments at three hourly intervals. Three hours after the last treatment, skin biopsies were collected and the number of colony forming units (CFUs) present in the skin sample was determined. Results are shown in FIGS. 3, 4 and 5 expressed as the number of colony forming units per mouse.

[18] = tested on: Streptococcus pyogenes CS301; experiment: as above; type: in vivo, mice
Method: as §1

[19] = tested on: Methicillin resistant Staphylococcus epidermidis (MRSE) strain ATCC 27626; conditions: ATCC 27626
[20] = tested on: HT2001254 Staphylococcus aureus (MRSA) - PVL positive; conditions: HT2001254 S. aureus (MRSA) PVL positive
[21] = tested on: EMRSA15 Staphylococcus aureus (MRSA) - SSCmec type 4; conditions: EMRSA15 - SSCmec type 4
[22] = tested on: Candida (Issatchenkia) krusei ATCC6258 - reference strain
[23] = tested on: Enterococcus gallinarum vancomycin-resistant (VanC) clinical isolate
[24] = tested on: Trichophyton mentagrophytes - G.R. Micro collection
[25] = tested on: Streptococcus bovis - macrolide-resistant clinical isolate
[26] = tested on: EMRSA3 Staphylococcus aureus (MRSA) - SSCmec type 1; conditions: EMRSA3 - SSCmec type 1
[27] = tested on: Cryptococcus neoformans - G.R. Micro collection
[28] = tested on: Staphylococcus aureus ATCC 29213 - antibiotic-susceptible control strain; conditions: ATCC 29213

Structure (SMILES): CC(C)NC(=O)[C@H](CCCNC(=N)N)NC(=O)[C@H](Cc1c(C(C)(C)C)[nH]c2c(C(C)(C)C)cc(C(C)(C)C)cc12)NC(=O)[C@@H](N)CCCNC(=N)N [Compound 7]
- S. aureus (MIC) [1]: <2 µg/mL
- P. aeruginosa (MIC) (P. aeruginosa): 7 µg/mL
- MIC [2]: 4 µg/mL (≈ 5.51 µM)
- MIC [3]: 8 µg/mL (≈ 11 µM)
- MIC [4]: 8 µg/mL (≈ 11 µM)
- MIC [5]: 8 µg/mL (≈ 11 µM)
- MIC [6]: 2 µg/mL (≈ 2.75 µM)
- MIC [7]: 4 µg/mL (≈ 5.51 µM)
- MRSA (MIC) [8]: <2 µg/mL
- MIC [9]: 4 µg/mL (≈ 5.51 µM)
- MIC [10]: 8 µg/mL (≈ 11 µM)
- S. pyogenes (MIC) (S. pyogenes): <2 µg/mL
- MIC [11]: 8 µg/mL (≈ 11 µM)
- MIC [12]: 8 µg/mL (≈ 11 µM)
- MIC [13]: 4 µg/mL (≈ 5.51 µM)
- MIC [14]: 8 µg/mL (≈ 11 µM)
- MIC [15]: 4 µg/mL (≈ 5.51 µM)
- MIC [16]: 8 µg/mL (≈ 11 µM)
- number of CFUs in skin biopsy [17]: the number of CFUs was reduced
- number of CFUs in skin biopsy ([18]; 1% or 2% gel, three topical treatments at three hourly intervals, compared to placebo gel and bactroban): more effective at reducing the number of CFUs from a Streptococcus pyogenes CS 301 infection than the placebo gel or the bactroban
- number of CFUs in skin biopsy, 2% gel versus 1% gel ([18]; gel containing 2% compared to gel containing 1%): more effective than the gel containing only 1% of compound 7
- MRSE (MIC) [19]: <2 µg/mL
- MIC [20]: 8 µg/mL (≈ 11 µM)
- MIC [21]: 8 µg/mL (≈ 11 µM)
- MIC [22]: 8 µg/mL (≈ 11 µM)
- MIC [23]: 8 µg/mL (≈ 11 µM)
- MIC [24]: 8 µg/mL (≈ 11 µM)
- MIC [25]: 8 µg/mL (≈ 11 µM)
- MIC [26]: 8 µg/mL (≈ 11 µM)
- E. coli (MIC) (E. coli): 7 µg/mL
- MIC [27]: 8 µg/mL (≈ 11 µM)
- MIC [28]: 8 µg/mL (≈ 11 µM)
- C. albicans (MIC) (C. albicans): 25 µg/mL
